Experimental data: patent US20060009425A1, “Oral formulations of paricalcitol” (priority 2004, published 2006)

Experiments:
[1] = system: biochemical bone activity markers; assay: Phase 3 TIW study, biochemical bone activity markers (Table C); format: in vivo, human; details: CKD Stage 3 and 4, TIW treated subjects (Table C)
Description: Serum bone-specific alkaline phosphate and serum osteocalcin are considered more sensitive bone markers to evaluate degree of bone remodeling than urinary bone marker. […] These subjects received treatment with the oral formulations of the present invention or a placebo. The bone markers examined in these subjects were serum osteocalcin, serum bone-specific alkaline phosphatase, urinary pyridinoline, and deoxypyridinoline. If more than 1 biochemical bone activity marker measurement existed for a subject on a particular day, the higher measurement was considered to be that subject's biochemical bone activity marker measurement for that day. […] The Final Visit measurement was defined as the last biochemical bone activity marker measurement following the first dose of study drug.
The Week 11 Visit measurement was defined as the biochemical bone activity marker measurement on the day closest to the Week 11 scheduled visit, for which the possible measurements to choose from were those collected within 64 and 77 days following the first dose of study drug.
Changes from baseline to Week 11 Visit and to Final Visit in biochemical bone activity markers were compared between oral paricalcitol and placebo using an ANOVA with treatment as the factor on the combined Phase 3 all treated subject population (Table F). Also, the changes from baseline to Week 11 Visit and to Final Visit were compared between oral paricalcitol and placebo using an ANCOVA with baseline as the second factor on the combined Phase 3 all treated subject population (Table G).
The study was performed in 4 parts: a Screening Visit, a Pre-Treatment Phase, a Treatment Phase, and a Follow-Up Phase. At the Screening Visit, subjects reviewed and signed the informed consent form prior to the conduct of any study-specific screening procedures. A spot urine sample was used to calculate calcium/creatinine ratio. A blood sample was drawn for iPTH, blood urea nitrogen (BUN), albumin and serum creatinine levels. […] The serum creatinine, BUN, and albumin values were used to calculate the subject's estimated glomerular filtration rate (eGFR) using a formula derived from the “Modification of Diet in Renal Disease” (MDRD) study. Subjects with a calculated eGFR of 15 to 60 mL/min were eligible to undergo Pre-Treatment Phase procedures. The Pre-Treatment Phase was 1 to 4 weeks. During this phase, subjects had 2 scheduled office visits. The office visits could have occurred at any time over a 4-week period but must have been at least 1 day apart. During these visits, subjects were to meet laboratory criteria regarding serum iPTH, calcium, and phosphorus levels. If the subject was unable to meet these criteria, he or she may have been re-screened once after 4 weeks. […] Subjects who satisfied inclusion and exclusion criteria after a minimum of 1 week in the Pre-Treatment Phase were eligible to enter the Treatment Phase. During the Treatment Phase, subjects were to self-administer study drug 3 times weekly, on Monday, Wednesday and Friday, for a total of 24 weeks. The initial dose was 2 or 4 mcg (depending on baseline iPTH levels). Procedures to be performed during the Treatment Phase included vital signs, chemistry and hematology, urinary pyridinoline, urinary deoxypyridinoline, serum bone-specific alkaline phosphatase, serum osteocalcin, urinalysis, spot urine for calcium/creatinine ratio, and recording of adverse events and concurrent medications. Serum iPTH, calcium, phosphorus, and albumin were measured every 2 weeks. Dose adjustments were to be made according to these chemistry results for iPTH, calcium, and phosphorus. Doses may have been increased in 2 mcg increments every 4 weeks. Dose reductions were to occur according to a protocol-specified algorithm. However, dosing could have been adjusted any time if, in the judgment of the Investigator, a risk to subject safety existed.

iPTH = assay: Combined Phase 3 studies, iPTH reduction (Examples 11, 12); format: in vivo, human; details: for iPTH, Mean Change from Baseline (SE) / iPTH, Mean Percent Change from Baseline (SE): last on-treatment
Description: In this example, three double-blind, placebo-controlled, multicenter studies were conducted to evaluate the safety and efficacy of paricalcitol capsule in CKD stage 3-4 subjects. Major inclusion included eGFR (MDRD formula) 15-60 mL/min/1.73 m^2, iPTH ≧150 pg/mL. A total of 220 subjects across the 3 studies were randomized and received paricalcitol capsule or placebo three times weekly (TIW, N=145) or daily (QD, N=75) for 24 weeks. […] The initial dose was 2 mcg (TIW) or 1 mcg (QD) for baseline iPTH ≦500 pg/mL and 4 mcg (TIW) or 2 mcg (QD) for baseline iPTH >500 pg/mL. Doses were titrated based on serum Ca, P and iPTH results that were measured every 2 weeks, dose increases occurred every 4 weeks.
In this example, paricalcitol capsules were evaluated in 3 double-blind, placebo-controlled multicenter studies in CKD stage 3-4 subjects with 2° HPT; 2 of these studies were conducted with TIW dosing and 1 was done with QD dosing. Subjects with eGFR (MDRD formula) 15-60 ml/min/1.73 m^2, iPTH ≧150 pg/mL, serum Ca 8.0-10.0 mg/dL and PO4≦5.2 mg/dL were randomized 1:1 and treated with paricalcitol capsule or placebo for 24 weeks. A total of 145 subjects used TIW regimen (paricalcitol: 72; placebo: 73) and 75 subjects (paricalcitol: 35; placebo: 40) used QD regimen. After the initial doses, doses were titrated based on serum Ca, P and iPTH results that were measured every 2 weeks; dose increases occurred once every 4 weeks and decreases every 2 weeks. Dosing administrations are shown below in Table 18.

Question: What does the source list for `C[C@H](/C=C/[C@H](C)C(C)(C)O)[C@H]1CC[C@H]2/C(=C/C=C3C[C@@H](O)C[C@H](O)C3)CCC[C@]12C` [Paricalcitol, 19-nor-1α,3β,25-trihydroxy-9,10-secoergosta-5(Z); 7(E),22(E)-triene]?
Answer: Serum Bone-Specific Alkaline Phosphatase, Change from Baseline (SE) to Final [1]: −7.922 (1.3520) mcg/L; Serum Bone-Specific Alkaline Phosphatase, Change from Baseline (SE) to Week 11 [1]: −4.673 (1.2590) mcg/L; Serum Osteocalcin, Change from Baseline (SE) to Final [1]: −19.00 (4.381) ng/mL; Serum Osteocalcin, Change from Baseline (SE) to Week 11 [1]: −4.23 (4.386) ng/mL; Urinary Deoxypyridinoline, Change from Baseline (SE) to Final [1]: −0.0084 (0.00375) nmol/mg Creat; Urinary Deoxypyridinoline, Change from Baseline (SE) to Week 11 [1]: −0.0116 (0.00354) nmol/mg Creat; Urinary Pyridinoline, Change from Baseline (SE) to Final [1]: −4.06 (2.276) nmol/mmol Creat; Urinary Pyridinoline, Change from Baseline (SE) to Week 11 [1]: −5.46 (2.545) nmol/mmol Creat; 30% mean iPTH reduction by (iPTH; 3 Phase 3 studies combined): ≤ 9 Week; efficacy in PTH suppression (iPTH; 24-week pivotal Phase 3 studies, CKD Stage 3 and 4 with 2° HPT): > 90%; subjects with 2 consecutive 30% decreases in iPTH (iPTH; 92/101, 3 Phase 3 studies combined): 91%; 2 consecutive 30% iPTH reduction from baseline, subjects n (%) (iPTH; N = 101, 3 Phase 3 studies combined): 92 (91%); iPTH, Mean Last On-Treatment Value (iPTH; QD Regimen, N = 35): 128 pg/mL; iPTH, Mean Change from Baseline (SE) (iPTH; QD Regimen): −131 (16.7) pg/mL; iPTH, Mean Percent Change from Baseline (SE) (iPTH; QD Regimen): −50% (5.0); 2 consecutive 30% iPTH reduction from baseline (iPTH; QD regimen): 91%; 30% mean iPTH reduction by (iPTH; QD regimen): ≤ 7 Week; 2 consecutive 30% iPTH reduction from baseline (iPTH; QD regimen, listed as paricalcitol): 91%; iPTH, Mean Last On-Treatment Value (iPTH; TIW Regimen, N = 69): 179 pg/mL; iPTH, Mean Change from Baseline (SE) (iPTH; TIW Regimen): −90 (10.7) pg/mL; iPTH, Mean Percent Change from Baseline (SE) (iPTH; TIW Regimen): −33% (3.6); 2 consecutive 30% iPTH reduction from baseline (iPTH; TIW regimen): 91%; 30% mean iPTH reduction by (iPTH; TIW regimen): ≤ 9 Week; 2 consecutive 30% iPTH reduction from baseline (iPTH; TIW regimen, listed as paricalcitol): 91%
